From US20080306028A1, “Erianin Salts, Their Preparation Methods and Pharmaceutical Compositions Containing the Same” (priority 2005, published 2008)
Read-outs that look alike come from different tables or passages of the source.

Tests used:
Kunming mice = experiment: LD50 determination of disodium phosphate of Erianin; type: in vivo; details: for deaths, death rate in total: 10 mice
Experimental: Experimental animal: Kunming mice, provided by Shanghai Slac Laboratory Animal Co., Ltd., weight being between 18˜22 g, half and half of female and male.
Reagent: 0.9% NaCl, disodium phosphate of Erianin (AP), provided by Zhejiang Cell Biomedical Research Co., Ltd., which is prepared by the process above, bitter acid.
(1) Experimental animal: Kunming mice, set up in 7 groups, 10 mice every group and half and half of female and male. Marked by bitter acid.
(2) In every group, administering by vena caudalis injection according to body weight of 1300 mg/kg, 1250 mg/kg, 1200 mg/kg, 1150 mg/kg, 1100 mg/kg, 1050 mg/kg, 1000 mg/kg.
(3) Observing at 0.25 h, 0.5 h, 1 h, 2 h, 4 h, 24 h respectively after administration and recording the death rate; then observing once every day and recording the death rate (table 1) for 14 days; putting the mice still alive to death on the 15th day and giving pathological anatomy.

S180 tumor = details: for Weight 10 d: body weight day 10; for Tumor weight / rate of tumor inhibition: day 10; for Weight 0 d: body weight day 0
Excerpt: Samples: disodium phosphate of Erianin (AP, prepared by the process of example 1) prepared the concentration needed with physiologic saline.
Control medicine: cyclophosphamide for injection (CTX), Shanghai Hualian Pharmaceutical Co., Ltd, batch number: 020806. dissolved with physiologic saline for use.
Fifty Kunming mice, female, weight: […], provided by the animal house in Shanghai Institute of Pharmaceutical Industry.
Two S180 ascites tumor mice, provided by the animal house in Shanghai Institute of Pharmaceutical Industry.
Drawing ascites under aseptic condition from S180 ascites tumor mice, counting the cells, diluting to 1-2×10^7/ml with physiologic saline, giving subcutaneous inoculation in the armpit of the mice with 0.2 ml each, randomly dividing the mice equally into five groups the next day, ten in each group.
Dosage for administration (mg/kg./d): AP 25 mg/kg, 75 mg/kg, 225 mg/kg
Means of administration: intravenous injection
The control medicine, cyclophosphamide, administered by intravenous injection, the dosage being 30 mg/kg×9d.
And setting up blank control group.
Administering medicine to the mice by weight the next day of inoculation, […] 0.5 ml/20 g for 9 days, by weight, and putting them to death on the tenth day after inoculation, weighing the tumor and calculating the rate of tumor inhibition.
Assessing the result according to the following formula: […]

solubility in water = type: physicochemical; details: product of example 1
Experimental: As the water-solubility of Erianin is low, the solubility in water being just <1 mg/ml, its preparation performance and clinical application are limited, so it is necessary to study the salts that can improve its water-solubility. At present, there is not any literature on the salts of Erianin and it's preparing process.
Cooling the crude acyl chloride in ice bath, adding sodium hydroxide solution (2 mol/L) while stirring till the PH value of the mixture is between 8˜10, stirring for 8 hours at 50° C.˜80° C., filtering to remove the insoluble substance, decompressing to evaporate most of the solvent, cooling for the white solid to be separated, which is the crude disodium phosphate of Erianin; Dissolving the crude product with ethanol while heated, filtering to remove the insoluble solid while hot, and cooling the filtrate for separated crystal as pure disodium phosphate of Erianin (6.0 g), a white crystal product with a yield of 86% m.p. 266-269° C., (splitting), dissolubility in water: 200 mg/ml.

tumor cell strain K256 = details: among dihydrobibenzyls and phenanthrenes in Dendrobium chrysotoxum; cited from earlier work
liver cancer of mouse = details: cited from earlier work
[1] = background statement; cited from earlier work
[2] = system: human leukemia HL-60 cells; details: cited from earlier work

Molecule: 3,4,5,4′-tetramethoxyl diphenylethane-3′-O-disodic phosphate [AP]
- deaths, death rate in total (Kunming mice; 1000 mg/kg i.v.): 0
- deaths, death rate in total (Kunming mice; 1050 mg/kg i.v.): 1
- deaths (Kunming mice; 1050 mg/kg i.v., day 1): 1
- deaths, death rate in total (Kunming mice; 1100 mg/kg i.v.): 3
- deaths (Kunming mice; 1100 mg/kg i.v., day 1): 3
- deaths, death rate in total (Kunming mice; 1150 mg/kg i.v.): 1
- deaths (Kunming mice; 1150 mg/kg i.v., day 1): 1
- deaths, death rate in total (Kunming mice; 1200 mg/kg i.v.): 3
- deaths (Kunming mice; 1200 mg/kg i.v., day 5): 1
- deaths (Kunming mice; 1200 mg/kg i.v., day 6): 1
- deaths (Kunming mice; 1200 mg/kg i.v., hours 0-4): 1
- deaths, death rate in total (Kunming mice; 1250 mg/kg i.v.): 6
- deaths (Kunming mice; 1250 mg/kg i.v., day 1): 3
- deaths (Kunming mice; 1250 mg/kg i.v., day 2): 2
- deaths (Kunming mice; 1250 mg/kg i.v., hours 0-4): 1
- deaths, death rate in total (Kunming mice; 1300 mg/kg i.v.): 7
- deaths (Kunming mice; 1300 mg/kg i.v., day 1): 6
- deaths (Kunming mice; 1300 mg/kg i.v., day 3): 1
- LD50 (Kunming mice; Kunming mice, vena caudalis injection, 14 days observation): 1243.0377 mg/kg
- pathological anatomy (Kunming mice; mice died during the experiment and mice executed after 14 days): no obvious pathological change
- Weight 10 d (S180 tumor; 25 mg/kg i.v. for 9 days): 22.93 ± 1.28 g
- Tumor weight (S180 tumor; 25 mg/kg i.v. for 9 days): 1.42 ± 0.26
- rate of tumor inhibition (S180 tumor; 25 mg/kg i.v. for 9 days): 42%
- Weight 0 d (S180 tumor; 25 mg/kg i.v.): 18.37 ± 1.58 g
- Weight 10 d (S180 tumor; 75 mg/kg i.v. for 9 days): 22.75 ± 2.25 g
- Tumor weight (S180 tumor; 75 mg/kg i.v. for 9 days): 0.82 ± 0.20
- rate of tumor inhibition (S180 tumor; 75 mg/kg i.v. for 9 days): 67%
- Weight 0 d (S180 tumor; 75 mg/kg i.v.): 18.41 ± 1.74 g
- Weight 10 d (S180 tumor; 225 mg/kg i.v. for 9 days): 22.01 ± 3.46 g
- Tumor weight (S180 tumor; 225 mg/kg i.v. for 9 days): 0.69 ± 0.08
- rate of tumor inhibition (S180 tumor; 225 mg/kg i.v. for 9 days): 72%
- Weight 0 d (S180 tumor; 225 mg/kg i.v.): 19.65 ± 1.26 g
- dissolubility in water (solubility in water): 200 mg/mL

Molecule: O=P1(N(CCCl)CCCl)NCCCO1 (centres unmarked) [CTX, cyclophosphamide, reference compound]
- Weight 0 d (S180 tumor; 30 mg/kg i.v.): 19.78 ± 1.20 g
- Weight 10 d (S180 tumor; 30 mg/kg×9d i.v.): 19.58 ± 2.54 g
- Tumor weight (S180 tumor; 30 mg/kg×9d i.v.): 0.41 ± 0.17
- rate of tumor inhibition (S180 tumor; 30 mg/kg×9d i.v.): 83%

Molecule: COc1ccc(CCc2cc(OC)c(OC)c(OC)c2)cc1O [Erianin]
- inhibitory effect on the growth of tumor cell strain K256 (tumor cell strain K256): the most active
- tumor inhibitory rate (liver cancer of mouse): 50.82%
- solubility in water [1]: < 1 mg/mL
- growth of human leukemia HL-60 cells [2]: significantly inhibited
